Source: patent publication US7521461B2, “Benzoic acid derivatives as modulators of PPAR alpha and gamma” (AstraZeneca AB, priority 2002, dated 2009)

Experiments:
human PPAR alpha = molecular target: T1, human PPAR alpha (Homo sapiens, UniProt Q07869); experiment: GAL4-PPAR ligand binding domain luciferase reporter transactivation assay in transiently transfected U2-OS cells; type: cell-based; details: concentration giving 50% of the maximal activation obtained by the reference compound (ETYA), about 24 hours exposure
T1 construct: expressed in transfected cells; host or cells: U2-OS (human osteogenic sarcoma), transient transfection by electroporation with a pSG5-based expression vector
T1 sequence (Q07869 239-466 limits assumed): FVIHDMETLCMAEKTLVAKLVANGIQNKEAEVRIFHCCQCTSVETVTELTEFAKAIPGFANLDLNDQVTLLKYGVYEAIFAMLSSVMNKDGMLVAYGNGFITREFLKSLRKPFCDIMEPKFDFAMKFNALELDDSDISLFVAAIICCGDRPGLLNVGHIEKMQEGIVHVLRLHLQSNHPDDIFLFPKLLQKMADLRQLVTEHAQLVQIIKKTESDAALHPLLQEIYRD
Procedure: (§1) Compounds were dissolved in DMSO to obtain 16 mM stock solutions. Before assays, stock solutions were further diluted in DMSO and culture media
(§2) U2-OS, (Osteogenic sarcoma, Human) was purchased from ATCC, USA. Cells were expanded and refrozen in batches from passage number six. Cells were cultured in Dulbecco's modified Eagle medium (DMEM) with 25 mM glucose, 2 mM glutamine or 4 mM L-alanyl-L-glutamine, 10% fetal calf serum, at 5% CO2. Phosphate buffered saline (PBS) without addition of calcium or magnesium was used. All cell culture reagents were from Gibco (USA) and 96-well cell culture plates were purchased from Wallach.
(§3) Standard recombinant DNA techniques were carried out as described by Ausubel (7). The Luciferase reporter vector, pGL5UAS (clone consists of five copies of the GAL4 DNA binding sequence, 5′-[…]-3′, cloned into the SacI/XhoI sites of pGL3-Promoter (Promega). The SacI/XhoI fragment carrying the UAS sites was constructed using annealed overlapping oligonucleotides.
(§4) Expression vectors used are based upon pSG5 (Stratagene). All vectors contain an EcoRI/NheI fragment encoding the DNA binding domain of GALA (encoding amino acid positions 1-145 of database accession number P04386) followed by an in-frame fusion to a fragment encoding the nuclear localisation sequence from T antigen of Polyoma Virus. […]

mouse PPAR gamma = molecular target: T2, mouse PPAR gamma (Mus musculus, UniProt P37238); experiment: as above; type: cell-based; details: concentration giving 50% of the maximal activation obtained by the reference compound (pioglitazone), about 24 hours exposure
T2 construct: expressed in transfected cells; host or cells: U2-OS (human osteogenic sarcoma), transient transfection by electroporation with a pSG5-based expression vector
T2 sequence (P37238 238-503 limits assumed): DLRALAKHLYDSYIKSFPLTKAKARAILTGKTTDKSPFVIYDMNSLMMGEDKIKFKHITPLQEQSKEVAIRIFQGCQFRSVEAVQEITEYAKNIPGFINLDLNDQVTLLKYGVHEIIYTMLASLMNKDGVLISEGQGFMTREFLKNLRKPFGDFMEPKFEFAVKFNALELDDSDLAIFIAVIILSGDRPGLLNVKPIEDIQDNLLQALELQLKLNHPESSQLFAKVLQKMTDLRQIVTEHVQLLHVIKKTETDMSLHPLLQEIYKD
Procedure: as §1, §2, §3, §4

SMILES: O=C(Cc1ccc(OCc2ccccc2C(=O)O)cc1)NCc1ccc(C(F)(F)F)cc1 [Example 2, 2-{[4-(2-Oxo-2-{[4-(trifluoromethyl)benzyl]amino}ethyl)phenoxy]methyl}benzoic acid]
- EC50 (human PPAR alpha): 2.96 µM
- EC50 (mouse PPAR gamma): 3.05 µM
